Patent US9597318B2, “2-oxothiazole compounds and method of using same for chronic inflammatory disorders” (Avexxin AS, priority 2009, dated 2017)
Read-outs that look alike come from different tables or passages of the source.

Assays:
group IVa PLA2 (cPLA2) = group IVa PLA2 (cPLA2) (Homo sapiens (Human), UniProt P47712); assay: In vitro cPLA2 enzyme activity assay; assay type: biochemical
Protocol: Some of the compounds above were tested using an in vitro cPLA2 enzyme activity assay.
Assay for cPLA2 activity was performed by the use of sonicated vesicles of 1-palmitoyl-2-arachidonoyl-sn-glycerol-3-phosphorylcholine (100 μM) containing 100,000 cpm of 1-palmitoyl-2-[1 14C]arachidonoylsn-glycerol-3-phosphorylcholine in 100 mM Hepes, pH 7.5, 80 μM Ca2, 2 mM dithiothreitol, and 0.1 mg/ml BSA as described. Following a […] incubation at 37° C., the reaction was terminated (derived from Wijkander et al). The lower phase was separated by thin layer chromatography, and the spot corresponding to free [1-14C]arachidonic acid was visualized by digital imaging and quantified with a PhosphorImager (Fuji Instruments). The source of cPLA2 enzyme was recombinant overexpression of the human gene for group IVa PLA2 in baculovirus insect cell expression system, as described in Abdullah et al. • Wijkander, J., and Sundler, R. (1991) Eur. J. Biochem. 202, 873-880 • Abdullah, K., et al. (1995) Human cytosolic phospholipase A2 expressed in insect cells is extensively phosphorylated on Ser-505. Biochim Biophys Acta. 1995 May 11; 1244(1):157-64.

SW982 cells = assay: AA release assay in SW982 cells, IL-1B stimulation; assay type: cell-based; details: Homo sapiens
Protocol: (§1) The Cell Culture SW982 model cell line at a confluent or spheroid state (Wada Y, 2005) was used since gene expression and generation of proinflammatory cytokines resemble RA-derived synovial fibroblast-like cells.
[…] […] IC50 is evaluated from dose-response inhibitions curves.

PGE2 = assay: PGE2-assay (EIA kit detection); assay type: cell-based
Protocol: as §1
Samples and controls were slowly thawed and diluted (between 1:1 and 1:2500) in the standard diluent. The maximal dilution was 1:10 for one step. That is why several intermediate dilutions were prepared. In the beginning all values were determined from duplicates. After having minimized technical errors, samples were only analyzed as individuals. All further steps, except for some minor corrections, were performed according to the manufacturer's recommendations as can be found in the manual of the EIA kit. In order to optimize the results, the incubation time of the alkaline phosphatase substrate was prolonged by 15 minutes. During the incubation, the plates were kept in the dark. An example of the arrangements of the samples and controls is illustrated in the appendix. The read-out was carried out with a Multiscan plate reader (Ascent Labsystems) at wavelengths of 414 and 595 nm after 10 seconds shaking at 120 rpm. The corresponding software to obtain the data was the Ascent software for Multiscan, Version 2.4.1.
Data were processed using Microsoft Office Excel 2003 and SigmaPlot 10.0.

[1] = recombinant human group IVa PLA2, vesicle assay, 37° C., read-out: Enzyme Assay IC 50
[2] = 1 h preincubation, IL-1B stimulation, time not given
[3] = read-out: cPLA2 in vitro assay IC50

Chain of group IVa PLA2 (cPLA2) (P47712 whole entry): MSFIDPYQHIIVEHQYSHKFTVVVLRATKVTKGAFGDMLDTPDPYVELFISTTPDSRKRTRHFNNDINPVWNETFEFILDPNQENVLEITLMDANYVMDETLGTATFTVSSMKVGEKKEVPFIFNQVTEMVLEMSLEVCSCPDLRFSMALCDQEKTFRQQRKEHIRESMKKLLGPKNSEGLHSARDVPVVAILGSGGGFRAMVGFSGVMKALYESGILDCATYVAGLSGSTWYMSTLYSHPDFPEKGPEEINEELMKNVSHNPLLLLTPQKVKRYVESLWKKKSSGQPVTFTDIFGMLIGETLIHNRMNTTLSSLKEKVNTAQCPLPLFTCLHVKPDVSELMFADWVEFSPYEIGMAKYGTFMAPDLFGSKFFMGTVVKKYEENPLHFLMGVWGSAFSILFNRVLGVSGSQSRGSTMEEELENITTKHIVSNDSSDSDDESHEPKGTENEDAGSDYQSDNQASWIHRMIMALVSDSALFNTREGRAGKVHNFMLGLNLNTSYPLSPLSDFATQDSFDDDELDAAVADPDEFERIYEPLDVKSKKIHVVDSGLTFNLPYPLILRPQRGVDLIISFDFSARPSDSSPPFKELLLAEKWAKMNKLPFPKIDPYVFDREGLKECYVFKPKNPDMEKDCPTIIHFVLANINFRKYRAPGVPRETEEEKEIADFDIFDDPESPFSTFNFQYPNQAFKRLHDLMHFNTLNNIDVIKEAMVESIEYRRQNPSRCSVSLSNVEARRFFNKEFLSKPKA

Row | Structure (SMILES) | IC50 (group IVa PLA2 (cPLA2); [1]) [µM] | IC50 (SW982 cells; [2]) [µM] | IC50 (group IVa PLA2 (cPLA2); [3]) [µM] | inhibition at 10 µM (PGE2) [%] | inhibition at 30 µM (PGE2) [%] | also measured
1 | O=C(CCCCc1ccccc1)c1nccs1 [GK147, 5-Phenyl-1-(thiazol-2-yl)pentan-1-one] | 3.05 | – | – | – | – | –
2 | CCCCCCOc1ccc(CCC(=O)c2nccs2)cc1 [GK150, 3-(4-(Hexyloxy)phenyl)-1-(thiazol-2-yl)propan-1-one] | – | 5.8 | – | – | – | –
3 | CCOC(=O)c1csc(C(=O)CCCCc2ccccc2)n1 [GK152, Ethyl 2-(5-phenylpentanoyl)thiazole-4-carboxylate] | – | – | > 5 | 30 | 31 | inhibition at 0.1 µM (PGE2; 0.1 uM): 41%; inhibition at 3 µM (PGE2): 38%; IC50 (SW982 cells; (2 h)): 7.4 µM; IC50 (SW982 cells; (4 h)): > 25 µM
4 | CCCCCCCCc1ccc(OCCCC(=O)c2nccs2)cc1 [GK154, 4-(4-Octylphenoxy)-1-(thiazol-2-yl)butan-1-one] | 3.65 | – | – | – | – | –
5 | CCCCCCOc1ccc(CCCC(F)C(=O)c2nccs2)cc1 (stereo not drawn) [GK156, 2-Fluoro-5-(4-(hexyloxy)phenyl)-1-(thiazol-2-yl)pentan-1-one] | 3.7 | – | – | – | – | –
6 | O=C(CCCCc1ccccc1)c1nc2ccccc2s1 [GK159] | – | – | > 5 | 23 | 10 | inhibition at 0.3 µM (PGE2; 0.3 uM): 76%; inhibition at 3 µM (PGE2): 18%; IC50 (SW982 cells; (2 h)): < 2 µM; IC50 (SW982 cells; (4 h)): ~25 µM
7 | CCC(=O)c1nc(C(=O)O)cs1 [GK160] | – | 4.9 | 7.2 | 12 | 30 | –
8 | O=C(CCCCc1ccc2ccccc2c1)c1nc2ccccc2s1 [GK181] | – | 1.4 | – | 16.3 | 22.5 | –
9 | CCc1ccc(OCC(=O)c2nccs2)cc1 [GK185] | – | 2.8 | 2 | – | – | –
